{"source": "BindingDB's records for doi:10.1016/j.bmcl.2009.09.002", "about": "(Novartis Institutes For Biomedical Research, 2009)", "experiment": "Antagonist activity at human CXCR3 expressed in L1.2 cells assessed as inhibition of I-TAC-induced cell migration by flow cytometry"}
{"smiles": "CCN(CC)C(=O)[C@@H]1C=C2c3cccc4[nH]cc(c34)C[C@H]2N(C(=O)Nc2ccccc2)C1", "note": "[(6aR,9R)-N9,N9-diethyl-N7-phenyl-6,6a,8,9-tetrahydroindolo[4,3-fg]quinoline-7,9(4H)-dicarboxamide]", "values": [{"measurement": "IC50", "value": 74, "unit": "nM"}]}
